# Test system: cancer cell lines
# Test: Cancer cell proliferation activity of representative nucleosides, CellTiterGlo 72 h (Example 7, Tables 8 and 9)
# Type: cell-based
# Conditions: 72 h
# Protocol: Dose response relationships on cell proliferation was assessed for representative nucleosides on cancer cell lines. Briefly, compound treatment of cells started one day after seeding with a final DMSO concentration of 0.1%, and was performed by nanodrop-dispensing using a Tecan Dispenser. 0.1% DMSO (solvent) and Staurosporine (10 μM) served as high control (100% viability) and low control (0% viability), respectively. Cells were cultured in the appropriate media. For the assays, cells were seeded in white cell culture-treated flat and clear bottom multiwell plates and incubated at 37° C. overnight before compound was added. After incubation for 72 h at 37° C. at 5% or 10% CO2 dependent on the medium, cell plates were equilibrated to room temperature for one hour, CellTiterGlo reagent (Promega) was added and luminescence was measured approximately an hour later using a luminometer.
# Raw data were converted into percent cell viability relative to the high and low control, which were set to 100% and 0%, respectively.
smiles,measurement,setting,value
N#C[C@]1(CO)O[C@@H](n2ccc(N)nc2=O)C[C@@H]1O [compound 29],IC50,"72 h, 5637, bladder",230 nM
same,IC50,"CLS439, bladder",3000 nM
same,IC50,"HS729, muscle",550 nM
same,IC50,"J82, bladder",840 nM
same,IC50,"JAR, placenta",> 50000 nM
same,IC50,"MT3, breast",120 nM
same,IC50,"PC3, prostate",200 nM
same,IC50,"RD, muscle",1400 nM
same,IC50,"T24, bladder",180 nM
same,IC50,"Homo sapiens, 22Rv1, 72 h, 22RV1, prostate",1040 nM
same,IC50,"Homo sapiens, 786-0, 72 h, 786O, kidney",1610 nM
same,IC50,"Homo sapiens, A204, 72 h, A204, muscle",30 nM
same,IC50,"Homo sapiens, A549, 72 h, A549, lung",880 nM
same,IC50,"Homo sapiens, A673, 72 h, A673, bone",200 nM
same,IC50,"Homo sapiens, A2780, 72 h, A2780, ovary",640 nM
same,IC50,"Homo sapiens, A-375, 72 h, A375, skin",570 nM
same,IC50,"Homo sapiens, A-431, 72 h, A431, skin",300 nM
same,IC50,"Homo sapiens, ACHN, kidney",710 nM
same,IC50,"Homo sapiens, ASPC1, 72 h, ASPC1, pancreas",280 nM
same,IC50,"Homo sapiens, BT-20, 72 h, BT20, breast",1470 nM
same,IC50,"Homo sapiens, BXPC-3, 72 h, BXPC3, pancreas",350 nM
same,IC50,"Homo sapiens, C-33-A, C33A, endometrial",240 nM
same,IC50,"Homo sapiens, CAKI-1, 72 h, CAKI1, kidney",110 nM
same,IC50,"Homo sapiens, COLO 205, 72 h, COLO205, colon",160 nM
same,IC50,"Homo sapiens, COLO-678, 72 h, COLO678, colon",10800 nM
same,IC50,"Homo sapiens, Ca-Ski, CASKI, endometrial",5220 nM
same,IC50,"Homo sapiens, Caco-2, 72 h, CACO2, colon",> 50000 nM
same,IC50,"Homo sapiens, Calu-6, 72 h, CALU6, lung",2540 nM
same,IC50,"Homo sapiens, DLD-1, 72 h, DLD1, colon",770 nM
same,IC50,"Homo sapiens, DU-145, 72 h, DU145, prostate",330 nM
same,IC50,"Homo sapiens, EFO-21, 72 h, EFO21, ovary",1190 nM
same,IC50,"Homo sapiens, EJ-28, 72 h, EJ28, bladder",2340 nM
same,IC50,"Homo sapiens, Granta-519, 72 h, GRANTA-519, hematological",80 nM
same,IC50,"Homo sapiens, HCT-15, 72 h, HCT15, colon",810 nM
same,IC50,"Homo sapiens, HCT-116, 72 h, HCT116, colon",550 nM
same,IC50,"Homo sapiens, HEK293, 72 h, HEK293, kidney",12700 nM
same,IC50,"Homo sapiens, HL-60, 72 h, HL-60, hematological",540 nM
same,IC50,"Homo sapiens, HT-29, 72 h, HT29, colon",1060 nM
same,IC50,"Homo sapiens, HT-1080, 72 h, HT1080, connective tissue",350 nM
same,IC50,"Homo sapiens, HeLa, endometrial",750 nM
same,IC50,"Homo sapiens, HepG2, 72 h, HEPG2, liver",2670 nM
same,IC50,"Homo sapiens, Hs-578T, HS578T, breast",1790 nM
same,IC50,"Homo sapiens, IGROV-1, 72 h, IGROV1, ovary",1370 nM
same,IC50,"Homo sapiens, IMR-90, 72 h, IMR90, lung",2730 nM
same,IC50,"Homo sapiens, JEG-3, 72 h, JEG3, placenta",1900 nM
same,IC50,"Homo sapiens, JIMT-1, 72 h, JIMT1, breast",210 nM
same,IC50,"Homo sapiens, K562, 72 h, K-562, hematological",1610 nM
same,IC50,"Homo sapiens, Kasumi 1, 72 h, KASUMI-1, hematological",220 nM
same,IC50,"Homo sapiens, L-363, 72 h, L-363, hematological",> 50000 nM
same,IC50,"Homo sapiens, LoVo, colon",440 nM
same,IC50,"Homo sapiens, MCF7, 72 h, MCF7, breast",> 50000 nM
same,IC50,"Homo sapiens, MDA-MB-231, 72 h, MDAMB231, breast",130 nM
same,IC50,"Homo sapiens, MDA-MB-435, 72 h, MDAMB435, skin",2120 nM
same,IC50,"Homo sapiens, MDA-MB-436, 72 h, MDAMB436, breast",360 nM
same,IC50,"Homo sapiens, MDA-MB-468, 72 h, MDAMB468, breast",1200 nM
same,IC50,"Homo sapiens, MG-63, 72 h, MG63, bone",570 nM
same,IC50,"Homo sapiens, MHH-ES-1, 72 h, MHHES1, bone",210 nM
same,IC50,"Homo sapiens, MIA PaCa-2, 72 h, MIAPACA2, pancreas",1930 nM
same,IC50,"Homo sapiens, MINO, hematological",70 nM
same,IC50,"Homo sapiens, MV4-11, 72 h, MV4-11, hematological",600 nM
same,IC50,"Homo sapiens, NCI-H23, 72 h, NCI-H23, lung",1340 nM
same,IC50,"Homo sapiens, NCI-H82, 72 h, NCIH82, lung",> 50000 nM
same,IC50,"Homo sapiens, NCI-H292, 72 h, NCIH292, lung",790 nM
same,IC50,"Homo sapiens, NCI-H460, 72 h, NCIH460, ung",2050 nM
same,IC50,"Homo sapiens, OVCAR-3, 72 h, OVCAR3, ovary",580 nM
same,IC50,"Homo sapiens, OVCAR-4, 72 h, OVCAR4, ovary",4180 nM
same,IC50,"Homo sapiens, PANC-1, 72 h, PANC1, pancreas",3430 nM
same,IC50,"Homo sapiens, PLC-PRF-5, 72 h, PLCPRF5, liver",> 50000 nM
same,IC50,"Homo sapiens, Panc1005, 72 h, PANC1005, pancreas",650 nM
same,IC50,"Homo sapiens, Ramos, hematological",170 nM
same,IC50,"Homo sapiens, SAOS-2, 72 h, SAOS2, bone",110 nM
same,IC50,"Homo sapiens, SF-268, 72 h, SF268, brain",350 nM
same,IC50,"Homo sapiens, SF-295, 72 h, SF295, brain",1130 nM
same,IC50,"Homo sapiens, SK-BR-3, 72 h, SKBR3, breast",650 nM
same,IC50,"Homo sapiens, SK-HEP1, 72 h, SKHEP1, liver",240 nM
same,IC50,"Homo sapiens, SK-LMS-1, 72 h, SKLMS1, uterus",3740 nM
same,IC50,"Homo sapiens, SK-MEL-5, 72 h, SKMEL5, skin",> 50000 nM
same,IC50,"Homo sapiens, SK-MEL-28, 72 h, SKMEL28, skin",2630 nM
same,IC50,"Homo sapiens, SK-N-AS, SKNAS, brain",4410 nM
same,IC50,"Homo sapiens, SK-N-SH, SKNSH, brain",> 50000 nM
same,IC50,"Homo sapiens, SK-OV-3, 72 h, SKOV3, ovary",890 nM
same,IC50,"Homo sapiens, SNB-75, 72 h, SNB75, brain",840 nM
same,IC50,"Homo sapiens, SU-DHL10, 72 h, SU-DHL-10, hematological",500 nM
same,IC50,"Homo sapiens, SU-DHL-6, 72 h, SU-DHL-6, hematological",800 nM
same,IC50,"Homo sapiens, SW-620, 72 h, SW620, colon",2640 nM
same,IC50,"Homo sapiens, TE-671, 72 h, TE671, muscle",1750 nM
same,IC50,"Homo sapiens, THP-1, 72 h, THP-1, hematological",970 nM
same,IC50,"Homo sapiens, U2OS, bone",5320 nM
same,IC50,"Homo sapiens, U-87 MG, U87MG, brain",500 nM
same,IC50,"Homo sapiens, UMUC3, 72 h, UMUC3, bladder",1160 nM
same,IC50,"Homo sapiens, UO-31, 72 h, UO31, kidney",660 nM
same,IC50,"Homo sapiens, WSU-NHL, hematological",220 nM
same,IC50,"NCI-H358M, NCIH358M, lung",40 nM
same,IC50,"PBMC, hematological",350 nM
same,IC50,"RD-ES, RDES, bone",1620 nM
